Holding throughout (assay type): in vivo
The subject of data set [1] is Scn1a^+/− mice. As to the kind of experiment: Gait test, Study II. The note with it: CBD 100 mg/kg s.c. twice daily. The procedure: (§1) Here, Scn1a^+/− were randomly divided into two groups and subcutaneously injected with either CBD (100 mg/kg twice daily; n=12) or its vehicle (ethanol:Kolliphor®:0.9% saline=2:1:17; n=29) from P8 onwards until P52 or death (whichever was earlier).
Gait test was conducted to assess the cerebellar function of the animals (Patel & Hillard, 2001). In this test, the hind paws of each mouse were marked with a non-toxic ink and the mouse was allowed to walk on a white paper (50×10 cm) placed on the floor of a custom-made plexiglass tunnel (50×10×10 cm). To obtain the left and right stride length, the distance between two ipsilateral paw prints was measured, whereas stride width was calculated from the distance between a footprint and its contralateral stride length at right angle (Wecker et al., 2013). The initial and last footprints were not considered in measurements. All the animals were habituated to the test procedures and the apparatus for 2 days prior to the test. On the day of test, two trials were conducted for each animal to obtain mean stride length (left or right) and width for that animal.
(§2) In Study II, the data were analysed in GraphPad Prism 6 software. Survival curves of Scn1a^+/− vehicle-treated and Scn1a^+/− CBD-treated group were compared using a Mantel-Cox test. The percentage of animals from the Scn1a^+/− vehicle-treated and Scn1a^+/− CBD-treated groups that survived until the end of the study (P52) were compared by Fisher's exact test. Further, data obtained from the comorbidity assessment were checked for normality by D'Agostino & Pearson omnibus normality test. Data obtained from rotarod, gait, social interaction (active interaction), EPM, sucrose preference, RAM (RME) tests were normally distributed and the differences between the three groups were analysed by one-way ANOVA. […] Parametric data are presented in scattered dot plot in the figures and are expressed as mean±SEM. Non-parametric data are presented in box plot in the figures and are expressed as median, min to max, and interquartile range (IQR). […]

Data set [2] relates to Scn1a^+/− mice. In words: Eight-arm radial arm maze (RAM) test, cognition, Study II. The note with it: CBD 100 mg/kg s.c. twice daily. The procedure: as §1
A radial arm maze (RAM) consisting of eight arms (each arm 60×10 cm; raised at 50 cm above the floor) was used to assess the reference memory (RM) and working memory (WM) of the animals. On four consecutive days, animals were given two 10-minute sessions of habituation to the test apparatus and rules of the test, separated by a 90 min interval. During the first two days of habituation, food rewards (¼ Cheerios®, Nestle) were randomly scattered on the floor of the apparatus covering all arms and food-troughs at the end of each arm. On the 3rd and 4th habituation day, food rewards were placed only in food troughs of four randomly selected arms (fixed for each animal during the habituation and test day). Food was withdrawn 4-6 hours before the trial (both during habituation and test days) to motivate the animals to locate the rewards and thus perform the task. On the test day two trials of 10 min were conducted at 90 min interval and the activity of the animals were video recorded for offline blinded coding after the end of experiment. Entry to a non-baited arm was considered as a reference memory error (RME), whereas re-entry to a previously baited arm from which the food was already taken is considered as a working memory error (WME). The mean WME or RME were calculated from the two test trials.
In Study II, the data were analysed in GraphPad Prism 6 software. Survival curves of Scn1a^+/− vehicle-treated and Scn1a^+/− CBD-treated group were compared using a Mantel-Cox test. The percentage of animals from the Scn1a^+/− vehicle-treated and Scn1a^+/− CBD-treated groups that survived until the end of the study (P52) were compared by Fisher's exact test. Further, data obtained from the comorbidity assessment were checked for normality by D'Agostino & Pearson omnibus normality test. Data obtained from rotarod, gait, social interaction (active interaction), EPM, sucrose preference, RAM (RME) tests were normally distributed and the differences between the three groups were analysed by one-way ANOVA. If a significant difference was found then Holm-Sidak post-hoc test was conducted among the groups. […] Upon observing a significant difference, the Dunn's post-hoc test was employed to compare the groups. Multiple comparisons were corrected in all cases. Parametric data are presented in scattered dot plot in the figures and are expressed as mean±SEM. Non-parametric data are presented in box plot in the figures and are expressed as median, min to max, and interquartile range (IQR). […]

Data set [3] concerns Scn1a^+/− mice. As to the kind of experiment: Accelerated rotarod test (motor function), Study II. How it is done:
as §1
Fine motor control in animals were assessed by the accelerated rotarod and static beam tests. Animals were habituated to the stationary rotarod for 2 min a day for 2 days. In the accelerated rotarod test each mouse was placed individually on a linearly accelerating rod (4-40 rpm over 5 minutes; LE8500, Letica Scientific Instruments, UK) and average latency to fall from the rod (maximum 300 seconds) was calculated from 3 consecutive trials (2 min interval between trials).
as §2, with “The percentage of animals from the Scn1a^+/− vehicle-treated and Scn1a^+/− CBD-treated groups that survived until the end of the study (P52) were compared by Fisher's exact test. Further, data obtained from the comorbidity assessment were checked for normality by D'Agostino & Pearson omnibus normality test.” left out
(In general: Falling from the rotarod earlier than controls is read as motor impairment.)

Turning to `C=C(C)[C@@H]1CCC(C)=C[C@H]1c1c(O)cc(CCCCC)cc1O` [CBD, cannabidiol], in data set [1] (p=0.17, FIG. 3E), the “stride width between the three groups” value is “no significant change”. Further, the “left stride length between the three groups” value in data set [1] (p=0.44, FIG. 3C) is given as “no significant change”. For the same compound, the “right stride length between the three groups” value in data set [1] (p=0.44, FIG. 3D) is listed as “no significant change”. In addition, the “reference memory errors (RME), Scn1a^+/− CBD-treated versus WT vehicle-treated” value in data set [2] (p=0.65) is “No difference”. For the same compound, the “working memory errors (WME), Scn1a^+/− CBD-treated versus WT vehicle-treated” value in data set [2] (p>0.9999) was “not differed”. The “reference memory errors (RME), Scn1a^+/− vehicle-treated compared to Scn1a^+/− CBD-treated” value in data set [2] (statement describes vehicle group relative to CBD group (n=10), p<0.0001, FIG. 4E) is listed as “significantly more RME”. Also, the “working memory errors (WME), Scn1a^+/− vehicle-treated compared to Scn1a^+/− CBD-treated” value in data set [2] (statement describes vehicle group relative to CBD group, p=0.001, FIG. 4F) was “significantly more WME”. The “time spent on rod, accelerating rotarod, between the groups” value in data set [3] (WT vehicle, Scn1a^+/− vehicle, Scn1a^+/− CBD (100 mg/kg s.c. twice daily), p=0.44, FIG. 3A) is “no significant difference”. The “effects on motor function (conclusion)” value in data set [3] (conclusion from rotarod and static beam tests in Scn1a^+/− mice, chronic CBD 100 mg/kg s.c. twice daily) is recorded as “no detrimental effects on motor function”.

For the origin of these results see US20220184000A1, “USE OF CANNABIDIOL IN THE TREATMENT OF DRAVET SYNDROME” (priority 2019, published 2022).
